# Test results reported in patent US10344025B2, “GLS1 inhibitors for treating disease” (Board of Regents, The University of Texas System, priority 2014, dated 2019).
# How the values were obtained:
# [1] = biological target: purified recombinant human GAC (GLS1) (Homo sapiens (Human), UniProt O94925); assay: GLS1 Enzymatic Activity Assay (dual-coupled enzymatic assay, resorufin/Amplex UltraRed readout); format: biochemical;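 also: glutamate from GAC coupled via glutamate oxidase and peroxidase to resorufin, read as fluorescence (ex 530, em 590 nm) kinetically or at 20 min, four-parameter logistic IC50 fit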
# purified recombinant human GAC (GLS1), sequence (O94925 other isoform, or with tags, fused parts or gaps): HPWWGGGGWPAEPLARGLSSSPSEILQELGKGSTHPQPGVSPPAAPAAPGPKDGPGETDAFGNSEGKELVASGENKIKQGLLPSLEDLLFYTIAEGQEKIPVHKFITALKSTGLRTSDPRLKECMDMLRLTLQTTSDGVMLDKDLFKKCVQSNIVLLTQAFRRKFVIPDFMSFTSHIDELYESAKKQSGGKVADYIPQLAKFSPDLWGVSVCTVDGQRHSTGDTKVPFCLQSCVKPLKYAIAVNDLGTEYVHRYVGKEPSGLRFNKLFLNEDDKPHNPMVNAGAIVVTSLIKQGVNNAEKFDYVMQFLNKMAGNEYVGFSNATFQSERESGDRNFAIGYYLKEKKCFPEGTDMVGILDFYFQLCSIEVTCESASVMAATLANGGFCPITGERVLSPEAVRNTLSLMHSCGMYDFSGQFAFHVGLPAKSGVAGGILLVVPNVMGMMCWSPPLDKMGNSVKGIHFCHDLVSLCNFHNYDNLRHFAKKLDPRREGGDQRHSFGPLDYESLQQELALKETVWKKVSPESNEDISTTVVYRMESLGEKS
# A549 cells = assay: Proliferation Assay (A549 viability, Cell Titer Fluor, 72 hours); format: cell-based; details: Homo sapiens
# Experimental: A549 cells were routinely maintained in RPMI 1640 media (Gibco catalog number 11875-093) supplemented with 10% dialyzed fetal bovine serum using a humidified incubator (37° C., 5% CO2 and ambient O2). In preparation for the viability assay, cells were inoculated into 384-well black CulturPlates (Perkin Elmer) at a density of 1000 cells/well in a volume of 40 uL. Following a 24-hour incubation at 37° C., 5% CO2 and ambient O2, cells were treated with compound (10 uL) in a final DMSO concentration of 0.5% (v/v). The microplates were then incubated for 72 hours (37° C., 5% CO2 and ambient O2). Cell Titer Fluor (Promega) was subsequently added (10 uL of 6× reagent) and mixed for 15 minutes at room temperature. The plates were then incubated for 30 minutes (37° C., 5% CO2 and ambient O2) and fluorescence was subsequently read on the Perkin Elmer Envision plate reader. IC50 values were calculated using a four-parameter logistic curve fit.
# Non-limiting examples include the following compounds and pharmaceutically acceptable salts thereof. […] “ND” indicates no data.
IC50 [1],"EC50 (A549 cells; A549, 72 h)",Compound,EC50 (A549 cells)
0.1 to 0.5 µM,0.5 to 5 µM,"CNC(=O)c1cn(C[C@@H](F)CCc2nnc(C(=O)NCc3cc(C(F)(F)F)ccn3)s2)nn1 (single isomer, unassigned) [Example 220]",–
< 0.1 µM,< 0.1 µM,"O=C(Cc1cccc(OC(F)(F)F)c1)Nc1nnc(CCCCn2cc(C(=O)NCc3cccnc3)nn2)s1 [Example 1, N-(pyridin-3-ylmethyl)-1-[4-(5-{2-[3-(trifluoromethoxy)phenyl]acetamido}-1,3,4-thiadiazol-2-yl)butyl]-1H-1,2,3-triazole-4-carboxamide]",–
< 0.1 µM,< 0.1 µM,"CNC(=O)c1cn(CCCCc2nnc(NC(=O)Cc3cccc(OC(F)(F)F)c3)s2)nn1 [Example 2, N-Methyl-1-(4-(5-(2-(3-(trifluoromethoxy)phenyl)acetamido)-1,3,4-thiadiazol-2-yl)butyl)-1H-1,2,3-triazole-4-carboxamide]",–
0.1 to 0.5 µM,0.1 to 0.5 µM,"NC(=O)c1cn(CCCCc2nnc(NC(=O)Cc3cccc(OC(F)(F)F)c3)s2)nn1 [Example 3, 1-(4-(5-(2-(3-(Trifluoromethoxy)phenyl)acetamido)-1,3,4-thiadiazol-2-yl)butyl)-1H-1,2,3-triazole-4-carboxamide]",–
0.1 to 0.5 µM,0.1 to 0.5 µM,"O=C(Cc1ccccc1)Nc1nnc(CCCCCn2cc(C(=O)NCc3ccccc3)nn2)s1 [Example 4, N-Benzyl-1-(5-(5-(2-phenylacetamido)-1,3,4-thiadiazol-2-yl)pentyl)-1H-1,2,3-triazole-4-carboxamide]",–
< 0.1 µM,< 0.1 µM,"COCCNC(=O)c1nnc(CCCCc2ccc(NC(=O)Cc3cccc(OC(F)(F)F)c3)nn2)s1 [Example 6, N-(2-methoxyethyl)-5-(4-(6-(2-(3-(trifluoromethoxy)phenyl)acetamido)pyridazin-3-yl)butyl)-1,3,4-thiadiazole-2-carboxamide]",–
0.1 to 0.5 µM,0.1 to 0.5 µM,"COCCNC(=O)c1nnc(CCCCn2cc(C(=O)NCc3cccc(C(F)(F)F)c3)nn2)s1 [Example 7, N-(2-methoxyethyl)-5-(4-(4-(3-(trifluoromethyl)benzylcarbamoyl)-1H-1,2,3-triazol-1-yl)butyl)-1,3,4-thiadiazole-2-carboxamide]",–
< 0.1 µM,0.1 to 0.5 µM,"O=C(Cc1cccc(OC(F)(F)F)c1)Nc1nnc(CCCCn2cc(C(=O)NCC3CC3)nn2)s1 [Example 11, N-(cyclopropylmethyl)-1-[4-(5-{2-[3-(trifluoromethoxy)phenyl]acetamido}-1,3,4-thiadiazol-2-yl)butyl]-1H-1,2,3-triazole-4-carboxamide]",–
< 0.1 µM,< 0.1 µM,"O=C(Cc1cccc(OC(F)(F)F)c1)Nc1nnc(CCCCn2cc(C(=O)NCC3CCOC3)nn2)s1 (stereo not drawn) [Example 12, N-(oxolan-3-ylmethyl)-1-[4-(5-{2-[3-(trifluoromethoxy)phenyl]acetamido}-1,3,4-thiadiazol-2-yl)butyl]-1H-1,2,3-triazole-4-carboxamide]",–
< 0.1 µM,0.5 to 5 µM,"O=C(Cc1ccccc1)Nc1nnc(CCCCn2cc(C(=O)NCCc3ccccc3)nn2)s1 [Example 13, 1-{4-[5-(2-phenylacetamido)-1,3,4-thiadiazol-2-yl]butyl}-N-(2-phenylethyl)-1H-1,2,3-triazole-4-carboxamide]",–
< 0.1 µM,0.1 to 0.5 µM,"O=C(Cc1ccccc1)Nc1nnc(CCCCn2cc(C(=O)NCc3ccccc3)nn2)s1 [Example 15, N-benzyl-1-{4-[5-(2-phenylacetamido)-1,3,4-thiadiazol-2-yl]butyl}-1H-1,2,3-triazole-4-carboxamide]",–
< 0.1 µM,< 0.1 µM,"O=C(Cc1cccc(OC(F)(F)F)c1)Nc1nnc(CCCCn2cc(C(=O)NCc3ccccc3)nn2)s1 [Example 16, N-benzyl-[4-(5-{2-[3-(trifluoromethoxy)phenyl]acetamido}-1,3,4-thiadiazol-2-yl)butyl]-1H-1,2,3-triazole-4-carboxamide]",–
0.1 to 0.5 µM,0.1 to 0.5 µM,"O=C(Cc1cccc(OC(F)(F)F)c1)Nc1nnc(CCCCn2cc(C(=O)NCCO)nn2)s1 [Example 17, N-(2-hydroxyethyl)-1-[4-(5-{2-[3-(trifluoromethoxy)phenyl]acetamido}-1,3,4-thiadiazol-2-yl)butyl]-1H-1,2,3-triazole-4-carboxamide]",–
0.1 to 0.5 µM,0.1 to 0.5 µM,"CC(C)(NC(=O)c1cn(CCCCc2nnc(NC(=O)Cc3cccc(OC(F)(F)F)c3)s2)nn1)c1ccccc1 [Example 18, N-(2-phenylpropan-2-yl)-1-[4-(5-{2-[3-(trifluoromethoxy)phenyl]acetamido}-1,3,4-thiadiazol-2-yl)butyl]-1H-1,2,3-triazole-4-carboxamide]",–
< 0.1 µM,< 0.1 µM,"O=C(Cc1cccc(OC(F)(F)F)c1)Nc1nnc(CCCCn2cc(C(=O)NCc3ccccn3)nn2)s1 [Example 19, N-(pyridin-2-ylmethyl)-1-[4-(5-{2-[3-(trifluoromethoxy)phenyl]acetamido}-1,3,4-thiadiazol-2-yl)butyl]-1H-1,2,3-triazole-4-carboxamide]",–
< 0.1 µM,< 0.1 µM,"O=C(Cc1cccc(OC(F)(F)F)c1)Nc1nnc(CCCCn2cc(C(=O)NCc3cccc(OC(F)(F)F)c3)nn2)s1 [Example 20, 1-[4-(5-{2-[3-(trifluoromethoxy)phenyl]acetamido}-1,3,4-thiadiazol-2-yl)butyl}-N-{[3-(trifluoromethoxy)phenyl]methyl}-1H-1,2,3-triazole-4-carboxamide]",–
< 0.1 µM,0.1 to 0.5 µM,"O=C(Cc1cccc(OC(F)(F)F)c1)Nc1nnc(CCCCn2cc(C(=O)N[C@@H](CO)c3ccccc3)nn2)s1 [Example 21, N-[(1R)-2-hydroxy-1-phenylethyl]-1-[4-(5-{2-[3-(trifluoromethoxy)phenyl]acetamido}-1,3,4-thiadiazol-2-yl)butyl]-1H-1,2,3-triazole-4-carboxamide]",–
< 0.1 µM,0.1 to 0.5 µM,"COc1ccc(CNC(=O)c2cn(CCCCc3nnc(NC(=O)Cc4cccc(OC(F)(F)F)c4)s3)nn2)c(OC)c1 [Example 22, N-[(2,4-dimethoxyphenyl)methyl]-1-[4-(5-{2-[3-(trifluoromethoxy)phenyl]acetamido}-1,3,4-thiadiazol-2-yl)butyl]-1H-1,2,3-triazole-4-carboxamide]",–
< 0.1 µM,0.1 to 0.5 µM,"O=C(Cc1cccc(OC(F)(F)F)c1)Nc1nnc(CCCCn2cc(C(=O)N[C@H](CO)c3ccccc3)nn2)s1 [Example 23, N-[(1S)-2-hydroxy-1-phenylethyl]-1-[4-(5-{2-[3-(trifluoromethoxy)phenyl]acetamido}-1,3,4-thiadiazol-2-yl)butyl]-1H-1,2,3-triazole-4-carboxamide]",–
< 0.1 µM,< 0.1 µM,"CC(C)CNC(=O)c1cn(CCCCc2ccc(NC(=O)Cc3ccccc3)nn2)nn1 [Example 24, N-(2-methylpropyl)-1-{4-[6-(2-phenylacetamido)pyridazin-3-yl]butyl}-1H-1,2,3-triazole-4-carboxamide]",–
< 0.1 µM,0.1 to 0.5 µM,"O=C(NCCc1ccccc1)c1nnc(CCCCc2ccc(NC(=O)[C@@H](O)c3ccccc3)nn2)s1 [Example 25, 5-(4-{6-[(2S)-2-hydroxy-2-phenylacetamido]pyridazin-3-yl}butyl)-N-(2-phenylethyl)-1,3,4-thiadiazole-2-carboxamide]",–
< 0.1 µM,< 0.1 µM,"O=C(Cc1ccccc1)Nc1ccc(CCCCc2nnc(C(=O)NCCc3ccccc3)s2)nn1 [Example 26, 5-{4-[6-(2-phenylacetamido)pyridazin-3-yl]butyl}-N-(2-phenylethyl)-1,3,4-thiadiazole-2-carboxamide]",–
< 0.1 µM,< 0.1 µM,O=C(Cc1cccnc1)Nc1ccc(CCCCc2nnc(C(=O)NCCc3ccccc3)s2)nn1 [Example 27],–
< 0.1 µM,0.1 to 0.5 µM,"O=C(Cc1ccccc1)Nc1ccc(CCCCc2nnc(C(=O)NCc3ccccc3)s2)nn1 [Example 28, N-benzyl-5-{4-[6-(2-phenylacetamido)pyridazin-3-yl]butyl}-1,3,4-thiadiazole-2-carboxamide]",–
< 0.1 µM,< 0.1 µM,"O=C(NCc1ccccc1)c1nnc(CCCCc2ccc(NC(=O)[C@@H](O)c3ccccc3)nn2)s1 [Example 29, N-benzyl-5-(4-{6-[(2S)-2-hydroxy-2-phenylacetamido]pyridazin-3-yl}butyl)-1,3,4-thiadiazole-2-carboxamide]",–
< 0.1 µM,< 0.1 µM,"O=C(Cc1cccnc1)Nc1ccc(CCCCc2nnc(C(=O)NCc3ccccc3)s2)nn1 [Example 30, N-benzyl-5-(4-{6-[2-(pyridin-3-yl)acetamido]pyridazin-3-yl}butyl)-1,3,4-thiadiazole-2-carboxamide]",–
–,< 0.1 µM,"CNC(=O)c1cn(CCCCc2ccc(NC(=O)Cc3cc(-c4cc(F)ccc4C)ccn3)nn2)nn1 [Example 609, 1-(4-(6-(2-(4-(5-fluoro-2-methylphenyl)pyridin-2-yl)acetamido)pyridazin-3-yl)butyl)-N-methyl-1H-1,2,3-triazole-4-carboxamide]",–

Compound,IC50 [1],"EC50 (A549 cells; A549, 72 h)",EC50 (A549 cells)
"CNC(=O)c1cn(CC(F)CCc2nnc(C(=O)NCc3cc(C(F)(F)F)ccn3)s2)nn1 (racemic) [Example 508, 5-(3-fluoro-4-(4-(methylcarbamoyl)-1H-1,2,3-triazol-1-yl)butyl)-N-((4-(trifluoromethyl)pyridin-2-yl)methyl)-1,3,4-thiadiazole-2-carboxamide]",0.1 to 0.5 µM,–,0.1 to 0.5 µM
"CNC(=O)c1cn(C[C@H](F)CCc2nnc(C(=O)NCc3cc(C(F)(F)F)ccn3)s2)nn1 (single isomer, unassigned) [Example 221]",0.1 to 0.5 µM,0.1 to 0.5 µM,–
